Test results as given in paper PMC2217215 (The Journal of General Physiology, 2000).
pIC50: −log10 of the molar value.

System: mitochondrial Na+/Ca2+ exchanger
Assay: fura-2 [Ca2+]i plateau after depolarization in intact neurons
Type: cell-based, Aquarana catesbeiana

O=C1CSC(c2ccccc2Cl)c2cc(Cl)ccc2N1 (stereo not shown) [CGP, CGP 37157]
pIC50: ~6.25
